Experimental data from EP0560232A1, “Novel 7-aminolabdanes, a process for their preparation and their use as pharmaceutical agents” (HOECHST AKTIENGESELLSCHAFT, priority 1992, dated 1993).

What was measured:
Isolated Rat Portal Vein = experiment: Potassium channel opening activity, isolated rat portal vein model (KCl-induced contractions); conditions: Dose 10^-6 Mol, 5 min incubation, n=5, mean + SEM, vehicle D.W. or DMSO; for Percent Inhibition Activity KCl20 mM: reduction of KCl 20 mM induced contraction; for Percent Inhibition Activity KCl80 mM: reduction of KCl 80 mM induced contraction
Procedure: Potassium channel opening activity: - Isolated Rat Portal Vein model.
Normal male albino rats of the Charles Foster strain of weight range 200 to 250 g were used.
After sacrificing the animal, abdomen was opened and portal vein was isolated and mounted in an organ bath containing Kerb's solution. The bath was maintained at 37°C and aerated with 95 vol.% oxygen and 5 vol.% carbon dioxide gas mixture. The tissue was kept under 0.5 to 1 g tension and allowed to stabilise for about 30 minutes. KCl₂₀ and KCl₈₀ mM induced cumulative concentrations were measured-through Hugo Sachs Force displacement transducer (K-30) and recorded on 4 channel digital recorder. After taking 2 control responses, the tissue was incubated with test substance for 5 minutes and dose response was repeated. The percent reduction in KCl₂₀ and KCl₈₀ mM induced contractions were calculated from the control values. Standard potassium channel opener selectively blocks the KCl₂₀ induced contractions without affecting the KCl₈₀ mM induced responses. […] The test compounds were administered in a volume of 0.2 ml per concentration. All results are expressed as mean + SEM.

Hypovolemic rats = experiment: Blood pressure lowering activity in hypovolemic rats; type: in vivo; conditions: for Blood pressure (mm Hg) Initial: before drug
Procedure: Hypovolemic rats were used for this activity. Hypovolemic rats were prepared by the administration of 100 mg/kg furosemide intra peritoneally 1 hour prior to the actual experiment. After administering furosemide the rats were anesthesised with 1.5 g/kg urethane given i.p. The right carotid artery was cannulated and blood pressure was mentioned on a physiological recorder by connecting the carotial cannula to a pressure transducer. The left jugular vein was cannulated for i.v. administration of test substances - intra duodenal (i.d.) administration is made by exposing a portion of the duodenum through a small incision made in the abdomen below the sternum. Blood pressure was monitored for 10 minutes in case of i.v. administration and for 90 to 120 minutes when the drug was administered by the i.d. route.

| SMILES | Percent Inhibition Activity KCl20 mM (Isolated Rat Portal Vein) | Percent Inhibition Activity KCl80 mM (Isolated Rat Portal Vein) | Blood pressure % change (Hypovolemic rats; 10 mg/kg i.v.) [%] | Blood pressure (mm Hg) Post drug (Hypovolemic rats; 10 mg/kg i.v.) [mm Hg] | Blood pressure duration (Hypovolemic rats; 10 mg/kg i.v.) [min] | Blood pressure (mm Hg) Initial (Hypovolemic rats; group dosed 10 mg/kg i.v.) [mm Hg] | Blood pressure % change (Hypovolemic rats; 30 mg/kg i.d.) [%] | Blood pressure (mm Hg) Post drug (Hypovolemic rats; 30 mg/kg i.d.) [mm Hg] | Blood pressure duration (Hypovolemic rats; 30 mg/kg i.d.) [min] | Blood pressure (mm Hg) Initial (Hypovolemic rats; group dosed 30 mg/kg i.d.) [mm Hg] |
| --- | --- | --- | --- | --- | --- | --- | --- | --- | --- | --- |
| C=C[C@@]1(C)CC(=O)[C@H]2[C@](C)(O1)[C@H](N)C=C1C(C)(C)CCC[C@@]12C [(α)NH2, 7α-Amino-8,13-epoxy-labd-5,14-dien-11-one] | 57+9% | 34+9% | -20.5±3 | 68±4 | 5 | 87±9 | – | – | – | – |
| C=C[C@@]1(C)CC(=O)[C@H]2[C@](C)(O1)[C@H](NC(C)=O)C=C1C(C)(C)CCC[C@@]12C [(α)NHCOCH3, 7α-Acetylamino-8,13-epoxy-labd-5,14-dien-11-one] | 34+10% | 5+2% | – | – | – | – | -15.4±3 | 80±4 | 30 | 94±3 |
| C=C[C@@]1(C)CC(=O)[C@@]2(O)[C@](C)(O1)[C@@H](N)C=C1C(C)(C)CC[C@H](O)[C@@]12C [(β)NH2, 7β-Amino-1α,9α-dihydroxy-8,13-epoxy-labd-5,14-dien-11-one] | – | – | – | 38±2 | >70 | 90±10 | – | – | – | – |
